Assays:
[1] = system: ApoE; experiment: astrocyte screening assay: secreted ApoE in rat type 1 astrocyte cultures; assay type: cell-based; conditions: for levels of extracellular (secreted) ApoE: astrocyte screening assay
Excerpt: Other culture systems which may be used include human culture systems of primary cells derived from human tissue or immortalized cell lines of nerve tissue origin such as the human astrocyte cell line, AsCH-7 (Bobryshev et al., 1995). In addition, novel cell lines from patients with various apoE genotypes may be used, as well as cell lines from patients suffering or predisposed to suffer from any of the neurodegenerative diseases described herein. Adult spinal cord from post-mortem patients with any of the above diseases may be used as a source for deriving cell lines of nerve tissue origin. One method of immortalizing cells from these patients is to infect primary tissue with a replication-deficient retrovirus containing DNA sequences encoding the SV40 large T antigen (Whittemore et al., 1994). Another method is to derive immortal human-human hybrid cell lines that express phenotypic characteristics of primary oligodendrocytes or astrocytes by fuising a 6-thioguanine-resistant mutant of the human rhabdomyosarcoma RD cell line with adult human nerve tissue by a lectin-enhanced polyethylene glycol procedure (McLaurin et al., 1995). Other methods for immortalizing cells derived from primary human nerve tissue could include the use of chemical carcinogens or radiation. […] Antibodies to ApoE allow for the design of a high throughput assay using an immunoassay detection method.
(§1) To verify this working hypothesis, we have examined the effect of various concentration of tacrine on ApoE synthesis and secretion in brain cells in culture. FIG. 5 illustrates the effect of tacrine on ApoE secretion in rat type 1 astrocyte cultures exposed (for 8 hours) to physiological and pharmacological concentrations of the drug. […] Experimental methods used to monitor ApoE levels are described in Bertrand et al., Mol. Brain Res. 33:174-178 (1995).

[2] = system: ApoE; conditions: AD subjects treated with tacrine for several months, N = 4; untreated Alzheimer 0.36
Description: as §1

[3] = system: Alzheimer's disease; conditions: Alzheimer's patients treated for very long periods; cited from earlier work

Row | SMILES | levels of extracellular (secreted) ApoE [1] | ApoE Concentration In the Cerebrospinal Fluid (CSF), Mean [2] | ApoE secretion in astrocytes ([1]; rat type 1 astrocyte cultures exposed for 8 hours, 2 uM, concentration typically found in CSF of treated AD patients) | delay of institutionalization [3]
1 | CCCCCCCNC(=O)Oc1ccc2c(c1)[C@]1(C)CCN(C)[C@@H]1N2C [heptylphysostigmine] | increase |  |  | 
2 | COc1cc2c(cc1OC)C(=O)C(CC1CCN(Cc3ccccc3)CC1)C2 (stereo not drawn) [donepezil] | no effect |  |  | 
3 | Nc1c2c(nc3ccccc13)CCCC2 [tacrine] | increase | 0.41 mg/dL | increases | more than 1.5 years

Source: patent publication US20010051602A1, “Methods for increasing ApoE levels for the treatment of neurodegenerative disease” (priority 1997, published 2001)
